Test results from patent publication US11311543B2, “Compositions and methods for inhibiting PTPN22” (YALE UNIVERSITY, priority 2016, dated 2022).

What was measured:
LYN = assay: Phosphorylation kinetics of LYN in RAMOS cells after BCR triggering (immunoblot); format: cell-based, human; conditions: LTV-1 5 μg/mL
Experimental: FIG. 40A depicts the phosphorylation of SHIP1, Lyn and ERK1/2 in total cell lysates of Ramos B cells treated or not with the PTPN22 inhibitor LTV-1 (5 μg/mL) for the indicated times. The cells were subjected to immunoblot analysis of P-LYN P-SHIP1, P-ERK1/2, and β-ACTIN. FIG. 40B depicts flow cytometry analysis of calcium flux of Ramos B cells treated or not with the PTPN22 inhibitor LTV-1 (5 μg/mL) for the indicated times followed by stimulation with anti-IgM F(ab′)2 at the indicated concentrations. FIG. 40C depicts flow cytometry analysis of calcium flux of splenocyte cells treated or not with LTV-1 (0.75 mg) twice daily for 7 days and stimulated with anti-IgM F(ab′)2 (25 μg/mL). FIG. 40D depicts flow cytometry analysis of calcium flux of splenocyte expressing PTPN22 shRNA and stimulated with anti-IgM F(ab′)2 (25 μg/mL).
However, downstream ERK phosphorylation was not affected by PTPN22 inhibition (FIG. 40A). Since PTPN22 inhibition enhanced TCR signaling in Jurkat cell line, it was investigated if PTPN22 blockade may also increase BCR signaling and calcium flux induced by BCR triggering was measured in RAMOS cells in the presence or not of LTV-1. Calcium flux was increased by PTPN22 inhibition, especially at lower concentration of BCR triggering agent (FIG. 40B). […]

mature naive B cells = assay: Peripheral B cell tolerance checkpoint in NSG+thymus mouse carrying the 1858T PTPN22 allele; format: in vivo, NSG mouse engrafted with human fetal HSCs and thymic tissue; conditions: LTV-1 0.75 mg twice daily for a month
Experimental: FIG. 41A depicts a schematic diagram depicting the LTV-1 PTPN22 inhibitor treatment strategy. A NSG+thymus mouse generated with CD34^+ HSCs and thymic graft carrying the 1858T PTPN22 allele was injected twice daily with 0.75 mg of PTPN22 inhibitor for four weeks. FIG. 41B depicts the frequencies of HEp-2 reactive mature naive B cells from NSG+thymus mice treated or not with the PTPN22 inhibitor were determined. […] For each B cell fraction, the frequency of reactive (filled area) and non-reactive (open area) clones is summarized in pie charts with the total number of clones tested indicated in the center. In summarized reactivity panels on the right, each symbol represents either a subject or a humanized mouse. Averages are shown with a bar. Statistically significant differences are indicated ****P≤0.0001, ***P≤0.001. FIG. 41C depicts the frequencies of polyreactive mature naive B cells from NSG+thymus mice treated or not with the PTPN22 inhibitor were determined. […] For each B cell fraction, the frequency of reactive (filled area) and non-reactive (open area) clones is summarized in pie charts with the total number of clones tested indicated in the center. In summarized reactivity panels on the right, each symbol represents either a subject or a humanized mouse. Averages are shown with a bar. Statistically significant differences are indicated ****P≤0.0001, ***P≤0.001. […]

PTPN22 = PTPN22 protein expression in GFP+ shRNA+ developing B cells from spleen of NSG mice; format: in vivo, human; conditions: GFP+ vs GFP- hCD19+ cells from spleen of NSG mice
Excerpt: FIG. 9A depicts a schematic of the experimental design. CD34+ HSCs carrying PTPN22 T allele(s) were transduced with lentiviruses allowing the expression of PTPN22 shRNA before injection in the liver of 3 day-old NSG mice. FIG. 9B depicts representative flow cytometry analysis of CD19+ cells isolated from the spleen of NSG mouse engrafted with PTPN22 C/T HSCs transduced with a GFP-tagged lentivirus expressing PTPN22 specific shRNA. CD19+ B cells were stained with anti-hCD19, anti-IgM and anti-hCD10 antibodies. The frequencies of GFP− and GFP+ shRNA+ new emigrant B cells are shown. […] The frequencies of polyreactive new emigrant B cells from sorted GFP+ fractions expressing PTPN22 shRNA were determined and compared to those of GFP− new emigrant B cells. […] The frequencies of HEp-2 reactive new emigrant B cells from sorted GFP+ fractions expressing PTPN22 shRNA were determined and compared to those of GFP− new emigrant B cells. […]
Total cell lysates were separated by SDS page, transferred to PVDF membranes, probed with mouse anti-PTPN22 (Invitrogen) and detected by chemiluminescence (Amersham ECL Prime Western Blotting detection Reagent) using a GBox documentation system (Syngene). For quantification, blots were stripped with stripping buffer (Pierce) and reprobed with a mouse anti-β-Actin antibody (Sigma-Aldrich).

Compound	phosphorylation of LYN at position Y396 (LYN)	impaired peripheral B cell tolerance checkpoint (autoreactive mature naive B cells) (mature naive B cells)	decrease of PTPN22 expression in developing B cells (PTPN22)
Cc1ccccc1N1C(=O)/C(=C/c2ccc(OCc3cccc(C(=O)O)c3)cc2)C(=O)NC1=S [LTV-1]	decreases	effectively restored	
shRNA #1: shRNA targeting human PTPN22, 5′-CTAGTGCTCTTGGTGTATATT-3′, delivered by GFP-tagged lentivirus			more than 90%
